Patent US20220387433A1, “TYPE V PHOSPHODIESTERASE INHIBITOR COMPOSITIONS, METHODS OF MAKING THEM AND METHODS OF USING THEM IN PREVENTING OR TREATING ELEVATED PULMONARY VASCULAR PRESSURE OR PULMONARY HEMORRHAGES” (American Regent, Inc., priority 2019, published 2022)

Test system: mature, healthy horses
Assay: Twenty-four week (6-month) target animal safety (TAS) study
Format: in vivo
Protocol: A twenty-four week (6-month) target animal safety (TAS) study was conducted to evaluate the safety of E-4021 (EIPHISOL®) in mature, healthy horses. The study was designed with 4 treatment groups of eight horses (two geldings, two stallions and four mares) in each group. Treatment groups included a Control (Group I: Isotonic saline at a volume equivalent to the largest volume given in the 5× (Group IV); 1× (Group II: 0.125 mg E4021 per pound body weight); 3× (Group III: 0.375 mg E4021 per pound body weight; and 5× (Group IV: 0.625 mg E4021 per pound body weight). Treatment groups were dosed intravenously alternating between the left and right jugular vein once every 7 days for 25 doses.
Breeds represented in this study included Thoroughbred, Quarter Horse, Paint, Arabian, and Grade. The overall age ranged from 3 to 17 years, with a mean of 7.6±4.49 years. The majority of the horses were Thoroughbred (59.4%).
Physical Examinations and Post-Dose Observations: Post-dose observations were conducted after every treatment to detect any acute abnormalities at 10-, 30-, and 60-minute intervals. […] As all groups (including the controls) recorded this finding (Table I), it is presumed that a factor other than the test article was responsible.

[1] = males in Group II (1×) and Group III (3×)
[2] = males in Group III (3×) and Group IV (5×)

sodium 1-[6-chloro-4-(3,4-methylenedioxybenzyl)-aminoquinazolin-2-yl]piperidine-4-carboxylate sesquihydrate [E-4021]
Visual findings ataxia/dragging toes or behavioral/sedation, counted once per horse per group (1X, PE Day 0): 6
Visual findings ataxia/dragging toes or behavioral/sedation, counted once per horse per group (1X, PE Day 28): 4
Visual findings ataxia/dragging toes or behavioral/sedation, counted once per horse per group (1X, PE Day 56): 2
Visual findings ataxia/dragging toes or behavioral/sedation, counted once per horse per group (1X, PE Day 84): 1
Visual findings ataxia/dragging toes or behavioral/sedation, counted once per horse per group (1X, PE Day 112): 1
Visual findings ataxia/dragging toes or behavioral/sedation, counted once per horse per group (1X, PE Day 140): 1
Visual findings ataxia/dragging toes or behavioral/sedation, counted once per horse per group (1X, PE Day 168): 1
Physical examination findings, treatment-related (1× and 3×): no major abnormal physical examination findings
Visual findings ataxia/dragging toes or behavioral/sedation, counted once per horse per group (3X, PE Day 0): 2
Visual findings ataxia/dragging toes or behavioral/sedation, counted once per horse per group (3X, PE Day 28): 0
Visual findings ataxia/dragging toes or behavioral/sedation, counted once per horse per group (3X, PE Day 56): 1
Visual findings ataxia/dragging toes or behavioral/sedation, counted once per horse per group (3X, PE Day 84): 0
Visual findings ataxia/dragging toes or behavioral/sedation, counted once per horse per group (3X, PE Day 112): 0
Visual findings ataxia/dragging toes or behavioral/sedation, counted once per horse per group (3X, PE Day 140): 1
Visual findings ataxia/dragging toes or behavioral/sedation, counted once per horse per group (3X, PE Day 168): 0
Visual findings ataxia/dragging toes or behavioral/sedation, counted once per horse per group (5X, PE Day 0): 6
Visual findings ataxia/dragging toes or behavioral/sedation, counted once per horse per group (5X, PE Day 28): 4
Visual findings ataxia/dragging toes or behavioral/sedation, counted once per horse per group (5X, PE Day 56): 3
Visual findings ataxia/dragging toes or behavioral/sedation, counted once per horse per group (5X, PE Day 84): 4
Visual findings ataxia/dragging toes or behavioral/sedation, counted once per horse per group (5X, PE Day 112): 2
Visual findings ataxia/dragging toes or behavioral/sedation, counted once per horse per group (5X, PE Day 140): 2
Visual findings ataxia/dragging toes or behavioral/sedation, counted once per horse per group (5X, PE Day 168): 2
Blood urea nitrogen (BUN) vs Group I (Control) (Day 140 for Group II (1×) and Day 154 for Group III (3×)): significantly higher
MCH vs Group I (Control) (Group II (1×) and Group IV (5×)): no significant differences
Direct bilirubin vs Group I (Control) (Group II (1×), overall): significantly lower
Erythrocytes vs Group I (Control) (Group II (1×), overall): significantly lower
Hematocrit vs Group I (Control) (Group II (1×), overall): significantly lower
Hemoglobin vs Group I (Control) (Group II (1×), overall): significantly lower
MCHC vs Group I (Control) (Group II (1×), Days 14, 70, and 154): significantly higher
Leukocytes vs Group I (Control), group-by-time (Group II (1×), Days 14 and 154): significantly lower
Glucose vs Group I (Control) (Group II (1×), Days 28, 42, 56, 70, and 140): significantly lower
APTT vs Group I (Control) (Group II (1×), Days 56, 140, and 168): significantly higher
Fibrinogen vs Group I (Control) (Group III (3×), overall): significantly lower
MCHC vs Group I (Control) (Group III (3×), Day 0): significantly lower
MCH vs Group I (Control) (Group III (3×), Day 56): significantly higher
APTT vs Group I (Control) (Group III (3×), Days 28, 56, 98, 140, and 168): significantly higher
Leukocytes vs Group I (Control), group-by-time (Group III (3×), Days 84, 98, 112, 140, and 168): significantly higher
Leukocytes vs Group I (Control), group-by-time (Group IV (5×)): no significant differences
APTT vs Group I (Control) (Group IV (5×), Day 84): significantly lower
Blood urea nitrogen (BUN) vs Group I (Control) (Group IV (5×), Days 28, 42, 84, and 112): significantly lower
Glucose vs Group I (Control) (Group IV (5×), Days 28, 84, 140, and 168): significantly lower
APTT vs Group I (Control) (Group IV (5×), Days 56, 70, and 126): significantly higher
MCHC vs Group I (Control) (Group IV (5×), Days 98, 112, and 154): significantly higher
Physical examination findings at and immediately after dosing (Group IV (5×), also recorded in controls, not dose related, not considered treatment related): transient locomotion (ataxia/dragging toes), or neurodepressant type effects (behavioral/sedation)
Microscopic findings at the injection site(s) (IV jugular once every 7 days for 25 doses, attributed to minor trauma of injection procedure): minimal fibrosis of the dermis or vein, and minimal degeneration and necrosis of the underlying skeletal muscle
Urinalysis findings (all groups): did not appear to be any indication of abnormal urinalysis findings
Bone marrow smears (control and test-article treated horses, no dose relationship or correlation with decreased platelet counts on Day 168): low incidence of decreased megakaryocytes
Leukocytes vs Group I (Control), group-by-sex (female horses in Group III (3×) and Group IV (5×)): significantly higher
Globulin vs Group I (Control) (females in Group II (1×)): significantly higher
Albumin vs Group I (Control) (females in Group II (1×) and Group III (3×)): significantly lower
Sorbitol dehydrogenase vs Group I (Control) (females in Group II (1×) and Group IV (5×)): significantly higher
Lymphocytes/leukocytes vs control (females, all treatment groups): no significant differences
Magnesium vs control (females, all treatment groups): no significant difference
Neutrophils/leukocytes vs control (females, all treatment groups): no significant differences
Macroscopic findings limited to the injection site (in vivo): no macroscopic findings
Microscopic findings: mandibular salivary glands, related to test article (males given 1× and 3×, limited number examined): no microscopic findings
Liver to brain weight ratio (%) compared to control males (males given the 3× dose, p=0.033, small magnitude, no dose response): statistically higher
Mean liver to body weight ratio (%) compared to control males (males given the 3× dose, p=0.064, small magnitude, no dose response): statistically higher
Leukocytes vs Group I (Control), group-by-sex (males in Group II (1×)): significantly lower
Albumin vs Group I (Control) [1]: significantly higher
Sorbitol dehydrogenase vs Group I (Control) [1]: significantly higher
Globulin vs Group I (Control) [2]: significantly lower
Lymphocytes/leukocytes vs Group I (Control) [2]: significantly higher
Magnesium vs Group I (Control) (males in Group IV (5×)): significantly lower
Neutrophils/leukocytes vs Group I (Control) (males in Group IV (5×)): significantly lower
Testicular changes, relation to dose (most consistent with spontaneous background findings): did not show evidence of a dose response
Microscopic findings: testes (often with mononuclear cell infiltration and/or Leydig cell pigment accumulation, not in the single control male): Minimal seminiferous tubule degeneration
Adverse event of abdominal colic (one horse Group II (1×) Day 51, one horse Control Day 54): did not appear to be associated with test article administration
Macroscopic observations at the end of dosing (previous trauma, infectious diseases, degenerative/aging changes or euthanasia artifact): attributed to spontaneous background alterations
Fecal analysis findings (two horses in Group III (3×) at Day 83, other groups normal): abnormal intestinal mucosa
